Measurements: US9884859B2, “Solid form of pyrazolopyridine compound” (SUNSHINE LAKE PHARMA CO., LTD., priority 2013, dated 2018)

What was measured:
[1] = Hygroscopicity test (Chinese Pharmacopoeia 2010, weight gain by sorption); format: physicochemical; conditions: 25° C.±1° C., about 24 h; for Result (hygroscopic properties): cell wraps: 'Low hygroscopic'; for Weight gain by absorption (%): constant humidity (saturated ammonium chloride or ammonium sulfate)
Procedure: Hygroscopicity Test of Crystalline Form I and Form III of the Compound of Formula (I) 1 Instrument and Regents 1.1 Instrument: 1/100000 Scale, XP205DR 1.2 Test Method According to “Chinese Pharmacopoeia”2010 edition, proportion II, XI X J. 1) Keep a dry glass weighing bottle with stopper (external diameter: 50 mm, height: 15 mm) in 25° C.±1° C. of thermostatic drier with saturated solution of ammonium chloride or ammonium sulfate placing on the bottom, precisely weighed (m1). 2) An appropriate amount of sample was spread in the weighing bottle by a millimeter thick, precisely weighed (m2). 3) An open weighing bottle and lid were kept together in environment of constant temperature and humidity for about 24 h.

[2] = Stability (acceleration) test of crystalline forms, purity by HPLC; format: physicochemical; conditions: for change of appearance, related substance and crystalline form: 30 days; for Overall impurity (%) / impurity A (%) / impurity B (%) / purity (%): HPLC; for appearance: cell wraps ('powder' on next line)
[3] = day 0, cell wraps: shows characteristic peaks of the crystalline form
[4] = day 30, 40° C.±2° C./75% RH±5%, Yes = shows characteristic peaks of the crystalline form

| Result (hygroscopic properties) [1] | Weight gain by absorption (%) [1] | stability ([2]; 40° C.±2° C./75% RH±5%) | change of appearance, related substance and crystalline form ([2]; 40° C.±2° C./75% RH±5%) | Overall impurity (%) ([2]; day 0, 40° C.±2° C./75% RH±5%) | impurity A (%) ([2]; day 0, 40° C.±2° C./75% RH±5%) | impurity B (%) ([2]; day 0, 40° C.±2° C./75% RH±5%) | purity (%) ([2]; day 0, 40° C.±2° C./75% RH±5%) | appearance ([2]; day 0, 40° C.±2° C./75% RH±5%) | DSC [2, 3] | XRD [2, 3] | Overall impurity (%) ([2]; day 30, 40° C.±2° C./75% RH±5%) | impurity A (%) ([2]; day 30, 40° C.±2° C./75% RH±5%) | impurity B (%) ([2]; day 30, 40° C.±2° C./75% RH±5%) | purity (%) ([2]; day 30, 40° C.±2° C./75% RH±5%) | DSC [2, 4] | XRD [2, 4] | appearance ([2]; day 30, 40° C.±2° C./75% RH±5%) | SMILES |
| --- | --- | --- | --- | --- | --- | --- | --- | --- | --- | --- | --- | --- | --- | --- | --- | --- | --- | --- |
| Low | 0.1% | stable for a month | did not change | 0.44% | 0.06% | 0.26% | 99.6% | Off-white | Shows | Shows | 0.43% | 0.06% | 0.26% | 99.6% | Yes | Yes | Off-white | COC(=O)N(C)c1c(N)nc(-c2nn(Cc3ccccc3F)c3ncccc23)nc1N [crystalline form I, methyl {4,6-diamino-2-[1-(2-fluorobenzyl)-1H-pyrazolo[3,4-B]pyridine-3-yl]pyrimidine-5-yl}N-methylcarbamate] |
| Low | 0.04% | stable for a month | did not change | 0.65% | 0.05% | 0.35% | 99.4% | pale yellow | Show | Show | 0.57% | 0.04% | 0.34% | 99.4% | Yes | Yes | pale yellow | COC(=O)N(C)c1c(N)nc(-c2nn(Cc3ccccc3F)c3ncccc23)nc1N [crystalline form III, methyl {4,6-diamino-2-[1-(2-fluorobenzyl)-1H-pyrazolo[3,4-B]pyridine-3-yl]pyrimidine-5-yl}N-methylcarbamate] |
